Experimental data taken from patent US10336689B1, “Gossypol eflornithine Schiff base compound with antitumor activities and a method of preparing the same” (SHAANXI UNIVERSITY OF SCIENCE AND TECHNOLOGY, priority 2019, dated 2019).
Like-named read-outs stand apart in the source and are kept apart here.

How the values were obtained:
Type in all cases: cell-based
[1] = test system: human gastric cancer cells (SGC-7901); assay: MTT tumor cell proliferation inhibition test, SGC-7901; settings: for IC50: Homo sapiens, read-out: Half Inhibitory Concentration IC50, SGC-7901
Description: (§1) The gossypol eflornithine Schiff base compound was subjected to tumor cell proliferation inhibition test, and conventional MTT method was used.
(§2) Cell lines: human hepatoma cells (HepG2), human lung cancer cells (A-549), human gastric cancer cells (SGC-7901). The culture medium was DMEM+15% NBS+double antibody.
(§3) Sample solution preparation: after dissolving with DMSO (Merck), PBS (−) was added to obtain 100 μmol/L solution or homogeneous suspension. The solution was diluted with PBS (−) in DMSO to a final concentration of 0.1, 1, 10, 20, 40, 60, 80, 100 μmol/L.
(§4) Gossypol and eflornithine used as control solution, prepared under the same condition.
(§5) Cell culture: adherent growth Tumor cells were cultured in 1640 medium containing 10% inactivated neonatal bovine serum and penicillin, streptomycin (1 million U/L), placed in carbon dioxide incubator at 37° C., 5% CO2, and saturated humidity. Cells were treated serially passaged 2-3 times. The first culture was washed with PBS 2 times, and digested with trypsin. Fresh culture medium was added evenly, cells were adjusted to an appropriate concentration and transferred into a new culture flask. Cell in an exponential phase were chosen for the tests.
MTT Assay for Cell Viability and IC50 Determination:
(§6) Experimental Principle: Living cells mitochondria in the dehydrogenase can reduce yellow MTT to water-insoluble blue-violet product MT (MTT formazan), deposited in the cells. The amount of production is proportional to the number of living cells. […] DMSO can dissolve blue violet crystals, and the color depth is proportional to the amount contained, so the absorbance measured by the microplate reader can reflect the cell viability.
(§7) Methods: The exponential phase cells were digested and counted and seeded in 96-well plates at a density of 2×10^4/mL at 100 μl per well. After 24 hours of incubation, the cells to be tested were treated with 0.1, 1, 10, 20, 40, 60, 80, 100 μmol/L of the compounds. Each experimental group had 5 wells in each concentration, and the culture medium containing 0.4% DMSO was used as control. After 48 hours, the supernatant was discarded, and 100 μl of MTT ((2-(4,5-dimethyl-2-thiazolyl)-3,5-diphenyl-2H-[…]) (1 mg/mL) was added to each well. After another 4 hours, the supernatant was discarded, and 100 μl of DMSO was added to each well. After mixing, the absorbance was measured at 570 nm using a microplate reader. An IC50 calculation software was used to determine the half inhibitory concentration (IC50).

[2] = test system: human lung cancer cells (A-549); assay: MTT tumor cell proliferation inhibition test, A-549; settings: read-out: Half Inhibitory Concentration IC50, A549
Description: as §1, §2, §3, §4
as §5, with “Cell in an exponential phase were chosen for the tests.” left out
as §6, with “the” for “the cells. The amount of production is proportional to the number of living”
as §7, with “After 24 hours of incubation, the cells to be tested were treated with 0.1, 1, 10, 20, 40, 60, 80, 100 μmol/L of the compounds. Each experimental group had 5 wells in each concentration, and the culture medium containing 0.4% DMSO was used as control.” left out

[3] = test system: human hepatoma cells (HepG2); assay: MTT tumor cell proliferation inhibition test, HepG2; settings: read-out: Half Inhibitory Concentration IC50, HepG2
Description: as §1, §2, §3, §4
as §5, with “Cell in an exponential phase were chosen for the tests.” left out
as §6, with “the” for “the cells. The amount of production is proportional to the number of living”
as §7, with “After 24 hours of incubation, the cells to be tested were treated with 0.1, 1, 10, 20, 40, 60, 80, 100 μmol/L of the compounds. Each experimental group had 5 wells in each concentration, and the culture medium containing 0.4% DMSO was used as control.” left out

[4] = SGC-7901 cells, MTT, 48 hours treatment
[5] = A549 cells, MTT, 48 hours treatment
[6] = HepG2 cells, MTT, 48 hours treatment

Which results are given for Cc1cc2c(C(C)C)c(O)c(O)c(/C=N\CCCC(N)(C(=O)O)C(F)F)c2c(O)c1-c1c(C)cc2c(C(C)C)c(O)c(O)c(/C=N\CCCC(N)(C(=O)O)C(F)F)c2c1O (stereo not shown) [gossypol eflornithine Schiff base compound]?
IC50 [1, 4]: 11.1 ± 0.34 µM; antitumor activity against SGC-7901 cell lines compared with gossypol ([1]; SGC-7901 cells, MTT, comparison with gossypol): better antitumor activity against SGC-7901 cell lines than gossypol; IC50 [2, 5]: 11.6 ± 0.2 µM; IC50 [3, 6]: 20.1 ± 0.57 µM

With Cc1cc2c(C(C)C)c(O)c(O)c(C=O)c2c(O)c1-c1c(C)cc2c(C(C)C)c(O)c(O)c(C=O)c2c1O [Gossypol] as the compound, how does the IC50 ([1]; SGC-7901, 48 h) read?
The IC50 was 19.8 ± 0.66 µM.

What about the IC50 ([2]; A549, 48 h) of the same compound?
The IC50 was 13 ± 0.32 µM.

And the IC50 ([3]; HepG2, 48 h)?
Its IC50 is 9.55 ± 0.41 µM.

NCCCC(N)(C(=O)O)C(F)F (stereo not shown) [Eflornithine] was tested. Which IC50 [1, 4] did it give?
The IC50 was over 100 µM.

And the IC50 [2, 5]?
Its IC50 is over 100 µM.

What about the IC50 [3, 6] of the same compound?
Its IC50 is over 100 µM.
